The text below walks through data of ChEMBL document CHEMBL3045104, “Synthesis and antibacterial activity of 4-benzoyl-1-(4-carboxy-phenyl)-5-phenyl-1H-pyrazole-3-carboxylic acid and derivatives” (2009).

≈ marks a conversion by molar mass, not a printed value. Calls of active or inactive are those of the source. No cut-off for these calls is given here.

What all share (type): functional
In assay [1] the test system is Salmonella enteritidis. Description: Antimicrobial activity against Salmonella enterica subsp. enterica serovar Enteritidis ATCC 1376 after overnight incubation by microdilution broth susceptibility assay.
The test system of assay [2] is Proteus vulgaris. Nature of the assay: Antimicrobial activity against Proteus vulgaris Kuk. 1329 after overnight incubation by microdilution broth susceptibility assay. In general terms: In broth dilution the organism is exposed to a series of concentrations in liquid medium.
The test system of assay [3] is Pseudomonas aeruginosa. Description: Antimicrobial activity against Pseudomonas aeruginosa ATCC 9027 after overnight incubation by microdilution broth susceptibility assay.
Assay [4] has as its system Staphylococcus aureus. Description: Antimicrobial activity against Staphylococcus aureus ATCC 29213 after overnight incubation by microdilution broth susceptibility assay.
The subject of assay [5] is Enterococcus faecalis. Description: Antimicrobial activity against Enterococcus faecalis ATCC 29122 after overnight incubation by microdilution broth susceptibility assay.
The subject of assay [6] is Xanthomonas campestris. Description: Antimicrobial activity against Xanthomonas campestris A235 after overnight incubation by microdilution broth susceptibility assay.
In assay [7] the test system is Klebsiella pneumoniae. Nature of the assay: Antimicrobial activity against Klebsiella pneumoniae A137 after overnight incubation by microdilution broth susceptibility assay.
Assay [8] relates to Streptococcus pyogenes. Nature of the assay: Antimicrobial activity against Streptococcus pyogenes ATCC 176 after overnight incubation by microdilution broth susceptibility assay.
The subject of assay [9] is Escherichia coli. Description: Antimicrobial activity against Escherichia coli B3704 after overnight incubation by microdilution broth susceptibility assay.
Assay [10] concerns Bacillus subtilis. Nature of the assay: Antimicrobial activity against Bacillus subtilis ATCC 6633 after overnight incubation by microdilution broth susceptibility assay.

Consider `O=C(Cl)c1ccc(-n2nc(C(=O)Cl)c(C(=O)c3ccccc3)c2-c2ccccc2)cc1`, for which the MIC entry in assay [1], in [2], in [3], in assay [4], in assay [5] and in assay [8] was “inactive” throughout. Besides, the MIC entry in assay [10] was “inactive”. For the same compound, the MIC in assay [6] came out at 285 µM (≈ 128 µg/mL); in [7], 142 µM (≈ 63.8 µg/mL); in [9] it was 142 µM (≈ 63.8 µg/mL).

`O=C(O)c1ccc(-n2nc3c(=O)[nH]nc(-c4ccccc4)c3c2-c2ccccc2)cc1`: the MIC entry in [1], in assay [4], in [5] and in [8] was “inactive” each time. Also, the MIC was found to be 157 µM (≈ 64.1 µg/mL) in assay [2]; 157 µM (≈ 64.1 µg/mL) in assay [3]; 313 µM (≈ 128 µg/mL) in assay [6]; 157 µM (≈ 64.1 µg/mL) in assay [7]; 157 µM (≈ 64.1 µg/mL) in assay [9]; 313 µM (≈ 128 µg/mL) in [10].

`CC(C)OC(=O)c1ccc(-n2nc(C(=O)OC(C)C)c(C(=O)c3ccccc3)c2-c2ccccc2)cc1`: the MIC result in [1], in assay [2], in [3], in assay [4], in assay [5] and in assay [8] was “inactive” throughout. Moreover, the MIC in [6] turned out to be 258 µM (≈ 128 µg/mL); in [7] it was 129 µM (≈ 64.1 µg/mL); in [9] it was 129 µM (≈ 64.1 µg/mL); in [10] it was 129 µM (≈ 64.1 µg/mL).

Turning to `O=C(O)c1ccc(-n2nc(C(=O)O)c(C(=O)c3ccccc3)c2-c2ccccc2)cc1`, the MIC entry in assay [1], in [2], in assay [3], in assay [5] and in assay [8] was “inactive” in each case. The MIC came to 310 µM (≈ 128 µg/mL) in assay [4]; 78 µM (≈ 32.2 µg/mL) in assay [6]; 155 µM (≈ 63.9 µg/mL) in assay [7]; 155 µM (≈ 63.9 µg/mL) in assay [9]; 310 µM (≈ 128 µg/mL) in [10].

Consider `CCCCCNC(=O)c1ccc(-n2nc(C(=O)NCCCCC)c(C(=O)c3ccccc3)c2-c2ccccc2)cc1`, for which the MIC result in [1], in assay [2], in assay [3], in assay [4], in assay [5] and in [6] was “inactive” in each case. In addition, in assay [8], the MIC result is “inactive”. In addition, the MIC in assay [7] turned out to be 116 µM (≈ 63.9 µg/mL); in assay [9] it was 116 µM (≈ 63.9 µg/mL); in assay [10], 232 µM (≈ 128 µg/mL).

Regarding `COC(=O)c1ccc(-n2nc(C(=O)OC)c(C(=O)c3ccccc3)c2-c2ccccc2)cc1`, the MIC result in assay [1], in assay [2], in assay [3], in assay [4], in assay [5] and in assay [6] was “inactive” each time. In addition, in assay [8], the MIC result was “inactive”. Besides, the MIC in assay [7] is 145 µM (≈ 63.9 µg/mL); in assay [9], 145 µM (≈ 63.9 µg/mL); in [10], 290 µM (≈ 128 µg/mL).

Turning to `N#Cc1ccc(-n2nc(C#N)c(C(=O)c3ccccc3)c2-c2ccccc2)cc1`, the MIC entry in assay [1], in assay [2], in assay [3], in [4], in [5] and in assay [8] was “inactive” each time. In addition, the MIC is 342 µM (≈ 128 µg/mL) in assay [6], 171 µM (≈ 64 µg/mL) in assay [7], 171 µM (≈ 64 µg/mL) in assay [9] and 171 µM (≈ 64 µg/mL) in assay [10].

`CNC(=O)NC(=O)c1ccc(-n2nc(C(=O)NC(=O)NC)c(C(=O)c3ccccc3)c2-c2ccccc2)cc1`: the MIC result in assay [1], in [2], in assay [3], in [4], in [5] and in assay [6] was “inactive” throughout. In addition, in assay [8], the MIC entry is “inactive”. The MIC in assay [7] came to 122 µM (≈ 64 µg/mL); in assay [9], 122 µM (≈ 64 µg/mL); in assay [10], 244 µM (≈ 128 µg/mL).

Turning to `NC(=O)c1ccc(-n2nc(C(N)=O)c(C(=O)c3ccccc3)c2-c2ccccc2)cc1`, the MIC entry in assay [1], in assay [2], in assay [3], in [4], in assay [5] and in assay [6] was “inactive” throughout. The MIC entry in assay [8] and in assay [10] was “inactive” throughout. In addition, the minimum inhibitory concentration (MIC) in [7] and in assay [9] was 156 µM (≈ 64 µg/mL) throughout.

`O=C(N[C@H](CO)[C@H](O)c1ccc([N+](=O)[O-])cc1)C(Cl)Cl` [CHLORAMPHENICOL]: the MIC in assay [1] amounted to 74 µM (≈ 23.9 µg/mL); in assay [2], 74 µM (≈ 23.9 µg/mL); in assay [3], 74 µM (≈ 23.9 µg/mL); in assay [4] it was 19 µM (≈ 6.14 µg/mL); in assay [5] it was 37 µM (≈ 12 µg/mL); in assay [6] it was 37 µM (≈ 12 µg/mL). Besides, the MIC turned out to be 37 µM (≈ 12 µg/mL) in assay [7], 37 µM (≈ 12 µg/mL) in assay [8], 19 µM (≈ 6.14 µg/mL) in assay [9] and 74 µM (≈ 23.9 µg/mL) in [10].

With `CCN(CC)C(=O)c1ccc(-n2nc(C(=O)N(CC)CC)c(C(=O)c3ccccc3)c2-c2ccccc2)cc1`, the MIC result in assay [1], in assay [2], in assay [3], in [4], in assay [5] and in assay [8] was “inactive” throughout. Moreover, the MIC in assay [6] stood at 245 µM (≈ 128 µg/mL); in assay [7], 123 µM (≈ 64.3 µg/mL); in assay [9] it was 123 µM (≈ 64.3 µg/mL); in assay [10], 245 µM (≈ 128 µg/mL).

With `CCCCOC(=O)c1ccc(-n2nc(C(=O)OCCCC)c(C(=O)c3ccccc3)c2-c2ccccc2)cc1`, the MIC result in assay [1], in assay [2], in assay [3], in [4], in assay [5] and in [8] was “inactive” each time. In addition, the MIC was found to be 244 µM (≈ 128 µg/mL) in assay [6], 122 µM (≈ 64 µg/mL) in assay [7], 122 µM (≈ 64 µg/mL) in assay [9] and 122 µM (≈ 64 µg/mL) in assay [10].

`O=C(NCc1ccccc1)NC(=O)c1ccc(-n2nc(C(=O)NC(=O)NCc3ccccc3)c(C(=O)c3ccccc3)c2-c2ccccc2)cc1`: the MIC result in assay [1], in assay [2], in [3], in assay [4], in assay [5] and in assay [6] was “inactive” in each case. For the same compound, the MIC result in assay [8] was “inactive”. Moreover, the MIC in assay [7] is 95 µM (≈ 64.3 µg/mL); in [9], 95 µM (≈ 64.3 µg/mL); in [10] it was 189 µM (≈ 128 µg/mL).

As to `CCOC(=O)c1ccc(-n2nc(C(=O)OCC)c(C(=O)c3ccccc3)c2-c2ccccc2)cc1`, the MIC result in assay [1], in assay [2], in assay [3], in assay [4], in [5] and in assay [6] was “inactive” each time. In assay [8], the MIC entry is “inactive”. Besides, the MIC in [7], in [9] and in [10] was 137 µM (≈ 64.2 µg/mL) each time.

For the compound `O=C(O)c1ccc(-n2nc3c(=O)n(-c4ccccc4)nc(-c4ccccc4)c3c2-c2ccccc2)cc1`, the MIC entry in [1], in assay [2], in assay [4], in assay [5] and in assay [8] was “inactive” in each case. Besides, the minimal inhibitory concentration (MIC) in [3] stood at 132 µM (≈ 64 µg/mL); in assay [6], 264 µM (≈ 128 µg/mL); in assay [7], 132 µM (≈ 64 µg/mL); in assay [9] it was 132 µM (≈ 64 µg/mL); in assay [10], 264 µM (≈ 128 µg/mL).

Take `Cn1nc(-c2ccccc2)c2c(-c3ccccc3)n(-c3ccc(C(=O)O)cc3)nc2c1=O`: the MIC result in assay [1], in assay [2], in [4], in [5] and in [8] was “inactive” throughout. Moreover, the MIC was 303 µM (≈ 128 µg/mL) in assay [3]; 303 µM (≈ 128 µg/mL) in assay [6]; 152 µM (≈ 64.2 µg/mL) in [7]; 152 µM (≈ 64.2 µg/mL) in assay [9]; 303 µM (≈ 128 µg/mL) in assay [10].

Turning to `O=C(O)c1ccc(-n2nc3c(=O)n(-c4ccc(C(=O)O)cc4)nc(-c4ccccc4)c3c2-c2ccccc2)cc1`, the MIC entry in [1], in assay [2], in assay [4], in assay [5], in assay [6] and in assay [8] was “inactive” in each case. For the same compound, the MIC in assay [3] is 242 µM (≈ 128 µg/mL); in assay [7], 121 µM (≈ 64 µg/mL); in assay [9] it was 121 µM (≈ 64 µg/mL); in assay [10], 242 µM (≈ 128 µg/mL).

On to `O=C(NC(=O)c1ccc(-n2nc(C(=O)NC(=O)Nc3ccccc3)c(C(=O)c3ccccc3)c2-c2ccccc2)cc1)Nc1ccccc1`, for which the MIC result in [1], in assay [2], in assay [3], in assay [4], in assay [5] and in assay [6] was “inactive” each time. In [8], the MIC result was “inactive”. The values for the MIC in [7], in assay [9] and in [10] were 99 µM (≈ 64.2 µg/mL), 99 µM (≈ 64.2 µg/mL) and 197 µM (≈ 128 µg/mL), respectively.

The term MIC denotes the least concentration at which growth counts as inhibited.
